Literature values in patent US20120021064A1, “COMPOSITIONS FOR BOWEL PREPARATION AND METHODS OF USE THEREOF” (Salix Pharmaceuticals, Ltd., priority 2009, published 2012).
Read-outs that look alike come from different tables or passages of the source.

CC(=O)Oc1ccc(C(c2ccc(OC(C)=O)cc2)c2ccccn2)cc1 [Bisacodyl]
time to produce a bowel movement (enemas): about 20 minutes | time to produce a bowel movement (suppositories): about an hour
